Assay results published in paper PMC6770091, “P-Glycoprotein 1 Affects Chemoactivities of Resveratrol against Human Colorectal Cancer Cells” (Nutrients, 2019).
Blank lines part the entries; values can stand above or below the compound they belong to.

Experiments:
BCRP = conditions: human, not told, 30 µM
Experimental: (§1) Resveratrol efflux was examined by incubating confluent cells in 6-well plates over 10 min with 30 µM tritiated resveratrol in complete medium at 37 °C. […] At the end of the incubation period, the labeled medium was removed and the cells were washed two times with PBS. Fresh medium (37 °C or 4 °C) was then quickly added to allow the cells to efflux tritiated resveratrol from 1 to 360 min. At the end of each time point, the cells were washed and lysed in NaOH 0.1 M, Na2CO3 2%, SDS 0.1%. The cell homogenates were transferred into flasks and cell-associated radioactivity was counted in a liquid scintillation analyzer. We evaluated 60 min area under curves (AUC) by integrating exponential regression curves of [^3H]-resveratrol time course accumulation between 0 and 60 min.

MRP2 = conditions: human, 30 µM
Experimental: as §1

MDR1 = conditions: mouse, not told, 30 µM
Experimental: as §1

SW620 cells [1] = assay: [3H]-resveratrol efflux measurement; assay type: in vitro ADME, human; conditions: after 10 min uptake of 30 µM [3H]-resveratrol
Experimental: as §1

HCT116 cells [2] = assay: [3H]-resveratrol efflux measurement; assay type: in vitro ADME, human; conditions: after 10 min uptake of 30 µM [3H]-resveratrol
Experimental: as §1

HT29 cells [3] = assay: [3H]-resveratrol efflux measurement; assay type: in vitro ADME, human; conditions: after 10 min uptake of 30 µM [3H]-resveratrol
Experimental: as §1

SW620 cells [4] = assay: Cytotoxicity assay, crystal violet staining; assay type: cell-based; conditions: Homo sapiens, SW-620, SW620, 72 h, read-out: IC50 (concentration inhibiting 50% of the tumor proliferation)
Experimental: (§2) Cell lines were seeded into 96-well plates. After 24 h of culture, the cells were treated with increasing concentrations of resveratrol for 72 h. All control and treated cells received the same volume of ethanol (0.1%). After time of treatment, cells were harvested and the toxicities were evaluated by crystal violet staining. Briefly, after treatments cells were washed with PBS 1X, stained for 5 min with a crystal violet solution (0.5% (w/v) crystal violet in 25% (v/v) methanol), and then gently rinsed with water. Absorbances were read at 540 nm with a Biochrom Asys UVM 340 spectrophotometer, after the extraction of the dye by 0.1 M sodium citrate in 50% ethanol. The inhibitory concentrations 50% (IC50) were assessed by crystal violet staining after 72 h of treatment. IC50 values were calculated by a four-parameter non-linear regression with GraphPad Prismversion 6 software (San Diego, California, CA, USA). In some experiments, after 24 h of seeding, cells were treated with resveratrol (30 µM) for 48 h before crystal violet staining. All results were expressed as percentages of control values (vehicle alone).

HCT116 cells [5] = assay: Cytotoxicity assay, crystal violet staining; assay type: cell-based; conditions: Homo sapiens, HCT-116, HCT116, 72 h, read-out: IC50 (concentration inhibiting 50% of the tumor proliferation)
Experimental: as §2

HT29 cells [6] = assay: Cytotoxicity assay, crystal violet staining; assay type: cell-based; conditions: Homo sapiens, HT-29, HT29, 72 h, read-out: IC50 (concentration inhibiting 50% of the tumor proliferation)
Experimental: as §2

SW480 cells [7] = assay: Cytotoxicity assay, crystal violet staining; assay type: cell-based; conditions: Homo sapiens, SW480, 72 h, read-out: IC50 (concentration inhibiting 50% of the tumor proliferation)
Experimental: as §2

MRP1 = biological target: T1, MRP1 (Homo sapiens, UniProt P33527); assay: [3H]-resveratrol efflux, BHK 21 vs BHK21-MRP1 overexpressing clone; assay type: in vitro ADME; conditions: BHK 21/MRP1 vs control BHK 21, 30 µM [3H]-resveratrol, 37°C
T1 construct: expressed in transfected cells; host or cells: BHK 21 (baby hamster kidney) stably transfected clone BHK21-MRP1, provided by Dr. Attilio Di Pietro
Experimental: as §1

SW480 cells [8] = assay: [3H]-resveratrol efflux measurement; assay type: in vitro ADME, human; conditions: for Vi = % of Resveratrol Efflux . min^−1: after 10 min uptake of 30 µM [3H]-resveratrol
Experimental: as §1, with “analyzer.” for “analyzer. We evaluated 60 min area under curves (AUC) by integrating exponential regression curves of [^3H]-resveratrol time course accumulation between 0 and 60 min.”

[9] = test system: colon carcinoma cells (all cell lines); assay: [3H]-resveratrol efflux in presence of other ABC protein inhibitors; assay type: cell-based, human

T1 sequence (P33527 whole entry): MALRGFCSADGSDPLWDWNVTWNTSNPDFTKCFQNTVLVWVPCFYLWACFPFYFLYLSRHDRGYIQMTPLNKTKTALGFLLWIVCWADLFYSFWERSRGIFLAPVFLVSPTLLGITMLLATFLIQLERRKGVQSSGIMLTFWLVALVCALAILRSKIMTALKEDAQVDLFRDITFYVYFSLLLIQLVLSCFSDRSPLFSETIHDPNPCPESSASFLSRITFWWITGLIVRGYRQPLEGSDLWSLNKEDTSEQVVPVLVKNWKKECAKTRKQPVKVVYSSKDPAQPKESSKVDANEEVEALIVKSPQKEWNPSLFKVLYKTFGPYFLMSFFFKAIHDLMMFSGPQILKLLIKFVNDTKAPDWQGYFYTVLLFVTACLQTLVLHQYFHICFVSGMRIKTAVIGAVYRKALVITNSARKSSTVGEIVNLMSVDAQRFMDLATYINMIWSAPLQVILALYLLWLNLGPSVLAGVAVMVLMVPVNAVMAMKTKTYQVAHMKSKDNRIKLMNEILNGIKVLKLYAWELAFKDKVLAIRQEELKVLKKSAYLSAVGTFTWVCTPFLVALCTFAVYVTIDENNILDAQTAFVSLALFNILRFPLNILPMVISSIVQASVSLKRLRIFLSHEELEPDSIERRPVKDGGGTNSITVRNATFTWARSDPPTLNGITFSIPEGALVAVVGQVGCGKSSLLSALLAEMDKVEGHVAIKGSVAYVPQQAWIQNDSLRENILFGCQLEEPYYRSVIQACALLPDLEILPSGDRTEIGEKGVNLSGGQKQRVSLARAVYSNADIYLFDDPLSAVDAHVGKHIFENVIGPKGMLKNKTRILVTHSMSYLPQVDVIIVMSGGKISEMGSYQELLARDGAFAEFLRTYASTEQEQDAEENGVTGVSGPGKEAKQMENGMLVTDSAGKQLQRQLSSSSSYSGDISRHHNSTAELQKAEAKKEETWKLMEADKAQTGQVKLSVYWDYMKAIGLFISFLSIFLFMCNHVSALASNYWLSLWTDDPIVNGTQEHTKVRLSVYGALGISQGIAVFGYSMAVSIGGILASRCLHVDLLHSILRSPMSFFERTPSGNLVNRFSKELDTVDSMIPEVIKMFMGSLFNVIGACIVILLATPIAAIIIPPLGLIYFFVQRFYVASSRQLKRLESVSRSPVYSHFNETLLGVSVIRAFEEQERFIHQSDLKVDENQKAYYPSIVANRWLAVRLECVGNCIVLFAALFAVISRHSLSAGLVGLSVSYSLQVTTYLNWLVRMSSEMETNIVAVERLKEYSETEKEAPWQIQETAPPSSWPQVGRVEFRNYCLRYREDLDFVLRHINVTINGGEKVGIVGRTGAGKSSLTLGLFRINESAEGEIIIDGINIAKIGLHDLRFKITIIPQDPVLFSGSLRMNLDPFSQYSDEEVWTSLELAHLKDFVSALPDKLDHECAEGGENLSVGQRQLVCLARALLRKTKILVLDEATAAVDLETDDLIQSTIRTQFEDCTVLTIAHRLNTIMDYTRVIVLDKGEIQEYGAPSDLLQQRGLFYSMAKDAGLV

inhibition of RSV accumulation (AUC 0-60 min of intracellular RSV level) by transporter overexpression (BCRP): 1.7 fold | AUC (0-60 min, intracellular RSV level) diminished between control cells and MRP2 overexpressing one (MRP2): 1.2 fold | inhibition of RSV accumulation (AUC 0-60 min of intracellular RSV level) by transporter overexpression (MDR1): 1.7 fold | Vi = % of Resveratrol Efflux . min^−1 (SW620 cells [1]; SW620, 4°C): 2.8 % of Resveratrol Efflux . min^−1 | Vi = % of Resveratrol Efflux . min^−1 (SW620 cells [1]; SW620, 37 °C): 5.7 % of Resveratrol Efflux . min^−1 | Vi = % of Resveratrol Efflux . min^−1 (HCT116 cells [2]; HCT116, 4°C): 2.6 % of Resveratrol Efflux . min^−1 | Vi = % of Resveratrol Efflux . min^−1 (HCT116 cells [2]; HCT116, 37 °C): 6.4 % of Resveratrol Efflux . min^−1 | Vi = % of Resveratrol Efflux . min^−1 (HT29 cells [3]; HT29, 4°C): 4.3 % of Resveratrol Efflux . min^−1 | Vi = % of Resveratrol Efflux . min^−1 (HT29 cells [3]; HT29, 37 °C): 5.9 % of Resveratrol Efflux . min^−1 | effect of MRP1 overexpression on intracellular RSV level (MRP1): early slight effect | Vi = % of Resveratrol Efflux . min^−1 (SW480 cells [8]; SW480, 4°C): 4.7 % of Resveratrol Efflux . min^−1 | Vi = % of Resveratrol Efflux . min^−1 (SW480 cells [8]; SW480, 37 °C): 6.3 % of Resveratrol Efflux . min^−1
SMILES: Oc1ccc(/C=C/c2cc(O)cc(O)c2)cc1 [RSV, trans 3,5,4′ trihydroxystilbene]
IC50 (SW620 cells [4]): ~20 µM | IC50 (HCT116 cells [5]): ~25 µM | IC50 (HT29 cells [6]): ~40 µM | IC50 (SW480 cells [7]): ~70 µM

SMILES: COc1ccc2c(c1)c(CC(=O)O)c(C)n2C(=O)c1ccc(Cl)cc1 [indomethacin, reference compound]
inhibition of the release of RSV (SW480 cells [8]; SW480, inhibitor 20 µM pretreatment 10 min, 5 min efflux at 37 °C): 1.8 fold

SMILES: [O]=[V]([O-])([O-])[O-] [orthovanadate]
effect on resveratrol retention [9]: enhance resveratrol retention

SMILES: C[C@@H]1O[C@@H](O[C@H]2C[C@@H](O)[C@]3(CO)[C@H]4[C@H](O)C[C@]5(C)[C@@H](C6=CC(=O)OC6)CC[C@]5(O)[C@@H]4CC[C@]3(O)C2)[C@H](O)[C@H](O)[C@H]1O [ouabain]
effect on resveratrol retention [9]: enhance resveratrol retention

SMILES: CCCN(CCC)S(=O)(=O)c1ccc(C(=O)O)cc1 [probenicid]
effect on resveratrol retention [9]: enhance resveratrol retention

SMILES: O=c1c(O)c(-c2ccc(O)c(O)c2)oc2cc(O)cc(O)c12 [quercetin]
effect on resveratrol retention [9]: enhance resveratrol retention

SMILES: C=C[C@H]1C[N@@]2CC[C@H]1C[C@H]2[C@H](O)c1ccnc2ccc(OC)cc12 [quinine]
effect on resveratrol retention [9]: enhance resveratrol retention
